{"source": "patent US10201546B2", "about": "“Quinolinyl modulators of RORγt” (Janssen Pharmaceutica NV, priority 2013, dated 2019)", "key": {"[1]": {"biological_target": "human RORγt ligand binding domain (RORγt LBD) (Homo sapiens (Human), UniProt P51449)", "sequence (P51449 other isoform, or with tags, fused parts or gaps)": "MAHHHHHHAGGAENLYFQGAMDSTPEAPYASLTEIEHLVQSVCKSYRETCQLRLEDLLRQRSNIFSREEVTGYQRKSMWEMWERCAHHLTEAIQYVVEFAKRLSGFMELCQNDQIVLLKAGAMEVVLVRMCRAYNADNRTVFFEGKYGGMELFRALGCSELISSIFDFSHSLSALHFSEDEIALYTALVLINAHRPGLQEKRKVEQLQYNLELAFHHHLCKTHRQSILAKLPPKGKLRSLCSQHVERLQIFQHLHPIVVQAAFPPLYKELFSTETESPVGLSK", "experiment": "RORγt ThermoFluor assay (thermal shift, binding affinity Kd)", "details": "ThermoFluor Assay, Kd"}, "[2]": {"biological_target": "human RORγt LBD fused to the DNA binding domain of the GAL4 protein (Homo sapiens (Human), UniProt P51449)", "sequence (P51449 258-518)": "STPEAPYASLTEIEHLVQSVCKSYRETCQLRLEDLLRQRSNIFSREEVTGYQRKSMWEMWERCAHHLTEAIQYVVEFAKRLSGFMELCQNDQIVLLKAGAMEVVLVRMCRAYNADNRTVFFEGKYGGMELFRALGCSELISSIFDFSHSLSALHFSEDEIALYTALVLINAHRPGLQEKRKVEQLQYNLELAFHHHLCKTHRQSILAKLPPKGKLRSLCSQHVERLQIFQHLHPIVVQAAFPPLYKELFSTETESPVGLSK", "experiment": "RORγt (LBD) reporter assay in HEK293T cells", "format": "cell-based", "design": "RORγt (LBD) Reporter Assay, % inhibition: dose or concentration left out as unconfirmed", "details": "for inhibition at 6 µM: HEK-293T, read-out: RORγt (LBD) Reporter Assay, % inhibition @ 6 μM, @ 6 μM", "excerpt": "A reporter assay was used to test functional activity of RORγt modulatory compounds on transcriptional activation driven by the RORγt LBD. Cells used in the assay were co-transfected with two constructs. The first construct, pBIND-RORγt LBD, contained the wild type human RORγt LBD fused to the DNA binding domain of the GAL4 protein. The second construct, pGL4.31 (Promega Cat no. C935A), contained multiple GAL4 responsive DNA elements upstream of firefly luciferase.\nThe pBIND vector contains the GAL4 DNA Binding Domain (GAL4 DBD) and the renilla luciferase gene under control of the SV40 promoter. Renilla luciferase expression serves as a control for transfection efficiency and cell viability.\nThe reporter assay was performed by transiently transfecting HEK293T cells with 5 μg of pBIND-RORγt LBD or pBIND-RORγt LBD-AF2 and 5 μg pGL4.31 (Promega Cat no. C935A) using Fugene 6 (Invitrogen Cat no. E2691) at a 1:6 ratio of DNA:Fugene 6 in a T-75 flask in which cells were at least 80% confluent. Twenty four hours after bulk transfection, cells were plated into 96-well plates at 50,000 cells/well in phenol-red free DMEM containing 5% Lipid Reduced FCS and Pen/Strep. Six hours after plating, cells were treated with compounds for 24 hours. Media was removed and cells were lysed with 50 μL 1× Glo Lysis Buffer (Promega). Dual Glo Luciferase Reagent (50 μL/well) was then added and firefly luciferase luminescence was read on an Envision after a ten minute incubation. Finally, Stop and Glo reagent (50 L/well) was added and renilla luciferase luminescence was read on an Envision after a ten minute incubation. To calculate the effect of compounds on RORγt activity, the ratio of firefly to renilla luciferase was determined and plotted against compound concentration. Agonist compounds increase RORγt-driven luciferase expression, and antagonist or inverse agonist compounds decrease luciferase expression."}}}
{"smiles": "COc1nc2ccc(C(O)(c3ccc(C)nc3C)c3cnnn3C)cc2c(Cl)c1CC1CCS(=O)(=O)CC1", "note": "(single isomer, unassigned) [Example 2c, 4-((4-Chloro-6-((2,6-dimethylpyridin-3-yl)(hydroxy)(1-methyl-1H-1,2,3-triazol-5-yl)methyl)-2-methoxyquinolin-3-yl)methyl)tetrahydro-2H-thiopyran 1,1-dioxide]", "values": [{"measurement": "Kd", "setting": "[1]", "result": 110, "unit": "nM"}]}
{"smiles": "COc1nc2ccc(C(O)(c3cnnn3C)c3cnc(C)n3C)cc2c(Cl)c1CN1CCC(C(F)(F)F)CC1", "note": "(single isomer, unassigned) [Example 106b, (4-Chloro-2-methoxy-3-((4-(trifluoromethyl)piperidin-1-yl)methyl)quinolin-6-yl)(1,2-dimethyl-1H-imidazol-5-yl)(1-methyl-1H-1,2,3-triazol-5-yl)methanol]", "values": [{"measurement": "inhibition at 6 µM", "setting": "[2]", "result": 103, "unit": "%"}]}
{"smiles": "COc1nc2ccc(C(O)(c3ccc(C)nc3C)c3cnnn3C)cc2c(Cl)c1CN1CCC(F)(F)CC1", "note": "(single isomer, unassigned) [Example 107b, (4-Chloro-3-((4,4-difluoropiperidin-1-yl)methyl)-2-methoxyquinolin-6-yl)(2,6-dimethylpyridin-3-yl)(1-methyl-1H-1,2,3-triazol-5-yl)methanol]", "values": [{"measurement": "inhibition at 6 µM", "setting": "[2]", "result": 38, "unit": "%"}]}
{"smiles": "COc1nc2ccc(C(O)(c3ccc(C)nc3C)c3cnnn3C)cc2c(Cl)c1CN1CCC(F)(F)CC1", "note": "(single isomer, unassigned) [Example 107c, (4-Chloro-3-((4,4-difluoropiperidin-1-yl)methyl)-2-methoxyquinolin-6-yl)(2,6-dimethylpyridin-3-yl)(1-methyl-1H-1,2,3-triazol-5-yl)methanol]", "values": [{"measurement": "RORγt (LBD) Reporter Assay, % inhibition @ 6 μM", "setting": "[2]", "result": 54, "unit": "%"}]}
{"smiles": "COc1nc2ccc(C(O)(c3ccc(C)nc3C)c3cnnn3C)cc2c(Cl)c1CN1CCC(F)CC1", "note": "(single isomer, unassigned) [Example 108b, (4-Chloro-3-((4-fluoropiperidin-1-yl)methyl)-2-methoxyquinolin-6-yl)(2,6-dimethylpyridin-3-yl)(1-methyl-1H-1,2,3-triazol-5-yl)methanol]", "values": [{"measurement": "RORγt (LBD) Reporter Assay, % inhibition @ 6 μM", "setting": "[2]", "result": 6, "unit": "%"}]}
{"smiles": "COc1nc2ccc(C(O)(c3ccc(C)nc3C)c3cnnn3C)cc2c(Cl)c1CN1CCC(F)CC1", "note": "(single isomer, unassigned) [Example 108c, (4-Chloro-3-((4-fluoropiperidin-1-yl)methyl)-2-methoxyquinolin-6-yl)(2,6-dimethylpyridin-3-yl)(1-methyl-1H-1,2,3-triazol-5-yl)methanol]", "values": [{"measurement": "RORγt (LBD) Reporter Assay, % inhibition @ 6 μM", "setting": "[2]", "result": 14, "unit": "%"}]}
{"smiles": "COc1nc2ccc(C(O)(c3ccc(C(F)(F)F)nc3)c3cncn3C)cc2c(Cl)c1CN1CCC(C(F)(F)F)CC1", "note": "(single isomer, unassigned) [Example 112b, (4-Chloro-2-methoxy-3-((4-(trifluoromethyl)piperidin-1-yl)methyl)quinolin-6-yl)(1-methyl-1H-imidazol-5-yl)(6-(trifluoromethyl)pyridin-3-yl)methanol]", "values": [{"measurement": "inhibition at 6 µM", "setting": "[2]", "result": 97, "unit": "%"}]}
{"smiles": "COc1nc2ccc(C(O)(c3ccc(C(F)(F)F)nc3)c3cncn3C)cc2c(Cl)c1CN1CCC(C(F)(F)F)CC1", "note": "(single isomer, unassigned) [Example 112c, (4-Chloro-2-methoxy-3-((4-(trifluoromethyl)piperidin-1-yl)methyl)quinolin-6-yl)(1-methyl-1H-imidazol-5-yl)(6-(trifluoromethyl)pyridin-3-yl)methanol]", "values": [{"measurement": "RORγt (LBD) Reporter Assay, % inhibition @ 6 μM", "setting": "[2]", "result": 96, "unit": "%"}]}
{"smiles": "COc1nc2ccc(C(O)(c3ccc(C)nc3C)c3cnnn3C)cc2c(Cl)c1CN1CC(C(F)(F)F)C1", "note": "(single isomer, unassigned) [Example 114b, (4-Chloro-2-methoxy-3-((3-(trifluoromethyl)azetidin-1-yl)methyl)quinolin-6-yl)(2,6-dimethylpyridin-3-yl)(1-methyl-1H-1,2,3-triazol-5-yl)methanol]", "values": [{"measurement": "inhibition at 6 µM", "setting": "[2]", "result": 60, "unit": "%"}]}
{"smiles": "COc1nc2ccc(C(O)(c3ccc(C)nc3C)c3cnnn3C)cc2c(Cl)c1CN1CC(C(F)(F)F)C1", "note": "(single isomer, unassigned) [Example 114c, (4-Chloro-2-methoxy-3-((3-(trifluoromethyl)azetidin-1-yl)methyl)quinolin-6-yl)(2,6-dimethylpyridin-3-yl)(1-methyl-1H-1,2,3-triazol-5-yl)methanol]", "values": [{"measurement": "RORγt (LBD) Reporter Assay, % inhibition @ 6 μM", "setting": "[2]", "result": 72, "unit": "%"}]}
{"smiles": "COc1nc2ccc(C(O)(c3ccc(C)nc3C)c3cnnn3C)cc2c(Cl)c1CC(C)C", "note": "(single isomer, unassigned) [Example 133b, (4-Chloro-3-isobutyl-2-methoxyquinolin-6-yl)(2,6-dimethylpyridin-3-yl)(1-methyl-1H-1,2,3-triazol-5-yl)methanol]", "values": [{"measurement": "RORγt (LBD) Reporter Assay, % inhibition", "setting": "[2]", "result": 90, "unit": "%"}]}
{"smiles": "COc1nc2ccc(C(O)(c3ccc(C)nc3C)c3cnnn3C)cc2c(Cl)c1CC(C)C", "note": "(single isomer, unassigned) [Example 133c, (4-Chloro-3-isobutyl-2-methoxyquinolin-6-yl)(2,6-dimethylpyridin-3-yl)(1-methyl-1H-1,2,3-triazol-5-yl)methanol]", "values": [{"measurement": "RORγt (LBD) Reporter Assay, % inhibition", "setting": "[2]", "result": 98, "unit": "%"}]}
{"smiles": "COc1nc2ccc(C(O)(c3ccc(C)nc3C)c3cnnn3C)cc2c(Cl)c1C1CCCC1", "note": "(single isomer, unassigned) [Example 136b, (4-Chloro-3-cyclopentyl-2-methoxyquinolin-6-yl)(2,6-dimethylpyridin-3-yl)(1-methyl-1H-1,2,3-triazol-5-yl)methanol]", "values": [{"measurement": "RORγt (LBD) Reporter Assay, % inhibition", "setting": "[2]", "result": 76, "unit": "%"}]}
{"smiles": "COc1nc2ccc(C(O)(c3ccc(C)nc3C)c3cnnn3C)cc2c(Cl)c1C1CCCC1", "note": "(single isomer, unassigned) [Example 136c, (4-Chloro-3-cyclopentyl-2-methoxyquinolin-6-yl)(2,6-dimethylpyridin-3-yl)(1-methyl-1H-1,2,3-triazol-5-yl)methanol]", "values": [{"measurement": "RORγt (LBD) Reporter Assay, % inhibition", "setting": "[2]", "result": 98, "unit": "%"}]}
{"smiles": "COc1nc2ccc(C(O)(c3ccc(C)nc3C)c3cnnn3C)cc2c(Cl)c1CC(F)(F)F", "note": "(single isomer, unassigned) [Example 143b, [4-Chloro-2-methoxy-3-(2,2,2-trifluoroethyl)quinolin-6-yl](2,6-dimethylpyridin-3-yl)(1-methyl-1H-1,2,3-triazol-5-yl)methanol]", "values": [{"measurement": "RORγt (LBD) Reporter Assay, % inhibition", "setting": "[2]", "result": 77, "unit": "%"}]}
{"smiles": "COc1nc2ccc(C(O)(c3cncn3C)C3CCN(C(C)=O)CC3)cc2c(Cl)c1CC1CCOCC1", "note": "(centres unmarked) [Example 5a, 1-(4-((4-Chloro-2-methoxy-3-((tetrahydro-2H-pyran-4-yl)methyl)quinolin-6-yl)(hydroxy)(1-methyl-1H-imidazol-5-yl)methyl)piperidin-1-yl)ethanone]", "values": [{"measurement": "inhibition at 6 µM", "setting": "[2]", "result": 45, "unit": "%"}]}
{"smiles": "COc1nc2ccc(C(O)(c3ccc(C)nc3C)c3cnnn3C)cc2c(Cl)c1C", "note": "(centres unmarked) [Example 12a, (4-Chloro-2-methoxy-3-methylquinolin-6-yl)(2,6-dimethylpyridin-3-yl)(1-methyl-1H-1,2,3-triazol-5-yl)methanol]", "values": [{"measurement": "inhibition at 6 µM", "setting": "[2]", "result": 93, "unit": "%"}]}
{"smiles": "COc1nc2ccc(C(O)(c3ccc(C)nc3C)c3cnnn3C)cc2c(Cl)c1CC1CC1", "note": "(centres unmarked) [Example 14a, (4-Chloro-3-(cyclopropylmethyl)-2-methoxyquinolin-6-yl)(2,6-dimethylpyridin-3-yl)(1-methyl-1H-1,2,3-triazol-5-yl)methanol]", "values": [{"measurement": "inhibition at 6 µM", "setting": "[2]", "result": 99, "unit": "%"}]}
{"smiles": "COc1nc2ccc(C(O)(c3ccc(C)nc3C)c3cnnn3C)cc2c(Cl)c1OCc1ncccn1", "note": "(centres unmarked) [Example 66a, [4-Chloro-2-methoxy-3-(pyrimidin-2-ylmethoxy)quinolin-6-yl](2,6-dimethylpyridin-3-yl)(1-methyl-1H-1,2,3-triazol-5-yl)methanol]", "values": [{"measurement": "inhibition at 6 µM", "setting": "[2]", "result": -112, "unit": "%"}]}
{"smiles": "COc1nc2ccc(C(O)(c3ccc(C)nc3C)c3cnnn3C)cc2c(Cl)c1OCC1CC1", "note": "(centres unmarked) [Example 68a, [4-Chloro-3-(cyclopropylmethoxy)-2-methoxyquinolin-6-yl](2,6-dimethylpyridin-3-yl)(1-methyl-1H-1,2,3-triazol-5-yl)methanol]", "values": [{"measurement": "inhibition at 6 µM", "setting": "[2]", "result": 83, "unit": "%"}]}
{"smiles": "COc1nc2ccc(C(O)(c3ccc(C)nc3C)c3cnnn3C)cc2c(Cl)c1OC1CCOCC1", "note": "(centres unmarked) [Example 69a, [4-Chloro-2-methoxy-3-(tetrahydro-2H-pyran-4-yloxy)quinolin-6-yl](2,6-dimethylpyridin-3-yl)(1-methyl-1H-1,2,3-triazol-5-yl)methanol]", "values": [{"measurement": "inhibition at 6 µM", "setting": "[2]", "result": 57, "unit": "%"}]}
{"smiles": "COc1nc2ccc(C(O)(c3ccc(C)nc3C)c3cnnn3C)cc2c(Cl)c1OCC1CC1(F)F", "note": "(centres unmarked) [Example 72a, {4-Chloro-3-[(2,2-difluorocyclopropyl)methoxy]-2-methoxyquinolin-6-yl}(2,6-dimethylpyridin-3-yl)(1-methyl-1H-1,2,3-triazol-5-yl)methanol]", "values": [{"measurement": "inhibition at 6 µM", "setting": "[2]", "result": 85, "unit": "%"}]}
{"smiles": "COc1nc2ccc(C(O)(c3ccc(C)nc3C)c3cnnn3C)cc2c(Cl)c1CN1CCC(C(F)(F)F)CC1", "note": "(centres unmarked) [Example 103a, (4-Chloro-2-methoxy-3-((4-(trifluoromethyl)piperidin-1-yl)methyl)quinolin-6-yl)(2,6-dimethylpyridin-3-yl)(1-methyl-1H-1,2,3-triazol-5-yl)methanol]", "values": [{"measurement": "inhibition at 6 µM", "setting": "[2]", "result": 101, "unit": "%"}]}
{"smiles": "COc1nc2ccc(C(O)(c3ccc(C)nc3C)c3cnnn3C)cc2c(Cl)c1CN1CCC(F)(F)CC1", "note": "(centres unmarked) [Example 107a, (4-Chloro-3-((4,4-difluoropiperidin-1-yl)methyl)-2-methoxyquinolin-6-yl)(2,6-dimethylpyridin-3-yl)(1-methyl-1H-1,2,3-triazol-5-yl)methanol]", "values": [{"measurement": "inhibition at 6 µM", "setting": "[2]", "result": 54, "unit": "%"}]}
{"smiles": "COc1nc2ccc(C(O)(c3ccc(C)nc3C)c3cnnn3C)cc2c(Cl)c1CC(C)C", "note": "(centres unmarked) [Example 133a, (4-Chloro-3-isobutyl-2-methoxyquinolin-6-yl)(2,6-dimethylpyridin-3-yl)(1-methyl-1H-1,2,3-triazol-5-yl)methanol]", "values": [{"measurement": "RORγt (LBD) Reporter Assay, % inhibition", "setting": "[2]", "result": 98, "unit": "%"}]}
{"smiles": "COc1nc2ccc(C(O)(c3ccc(C)nc3C)c3cnnn3C)cc2c(Cl)c1C1CCCC1", "note": "(centres unmarked) [Example 136a, (4-Chloro-3-cyclopentyl-2-methoxyquinolin-6-yl)(2,6-dimethylpyridin-3-yl)(1-methyl-1H-1,2,3-triazol-5-yl)methanol]", "values": [{"measurement": "RORγt (LBD) Reporter Assay, % inhibition", "setting": "[2]", "result": 97, "unit": "%"}]}
